Assay results published in ChEMBL document CHEMBL1144936, “Orally active oxime derivatives of the dopaminergic prodrug 6-(N,N-di-n-propylamino)-3,4,5,6,7,8-hexahydro-2H-naphthalen-1-one. Synthesis and pharmacological activity” (J Med Chem, 2003).
The source made the active and inactive calls. No cut-off for these calls is given here.

Legend:
Rattus norvegicus [1] = experiment: Effect of compound on total full contralateral turns at the dose of 10 mg/Kg administered perorally in ungerstedt rat model; […]; format: functional, organism-based
Rattus norvegicus [2] = experiment: Effect of compound on total full contralateral turns at the dose of 0.3 mg/Kg administered perorally in ungerstedt rat model; format: functional
Rattus norvegicus [3] = experiment: Effect of compound on total full contralateral turns at the dose of 1.0 mg/Kg administered perorally in ungerstedt rat model; format: functional
D(2) dopamine receptor [4] = molecular target: D(2) dopamine receptor (Homo sapiens, UniProt P14416); experiment: Tested for percent intrinsic activity towards Dopamine receptor D2 in CHO cells; format: cell-based
Sequence of D(2) dopamine receptor (Homo sapiens, UniProt P14416) (P14416 whole entry): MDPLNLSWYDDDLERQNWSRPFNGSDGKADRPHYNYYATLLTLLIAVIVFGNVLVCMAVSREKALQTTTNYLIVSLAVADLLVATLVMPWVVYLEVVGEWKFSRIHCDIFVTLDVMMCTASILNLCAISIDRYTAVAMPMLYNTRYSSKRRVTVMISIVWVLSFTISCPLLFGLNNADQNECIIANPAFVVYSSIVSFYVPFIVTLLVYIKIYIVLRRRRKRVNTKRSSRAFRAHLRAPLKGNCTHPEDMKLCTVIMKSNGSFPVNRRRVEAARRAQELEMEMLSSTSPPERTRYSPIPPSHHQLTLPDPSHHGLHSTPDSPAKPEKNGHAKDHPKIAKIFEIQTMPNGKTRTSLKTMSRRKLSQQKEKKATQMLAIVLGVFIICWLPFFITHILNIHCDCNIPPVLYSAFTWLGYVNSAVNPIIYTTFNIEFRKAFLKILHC

D(2) dopamine receptor [5] = molecular target: D(2) dopamine receptor (Rattus norvegicus, UniProt P61169); experiment: In vitro binding affinity towards Dopamine receptor D2
Sequence of D(2) dopamine receptor (Rattus norvegicus, UniProt P61169) (P61169 whole entry): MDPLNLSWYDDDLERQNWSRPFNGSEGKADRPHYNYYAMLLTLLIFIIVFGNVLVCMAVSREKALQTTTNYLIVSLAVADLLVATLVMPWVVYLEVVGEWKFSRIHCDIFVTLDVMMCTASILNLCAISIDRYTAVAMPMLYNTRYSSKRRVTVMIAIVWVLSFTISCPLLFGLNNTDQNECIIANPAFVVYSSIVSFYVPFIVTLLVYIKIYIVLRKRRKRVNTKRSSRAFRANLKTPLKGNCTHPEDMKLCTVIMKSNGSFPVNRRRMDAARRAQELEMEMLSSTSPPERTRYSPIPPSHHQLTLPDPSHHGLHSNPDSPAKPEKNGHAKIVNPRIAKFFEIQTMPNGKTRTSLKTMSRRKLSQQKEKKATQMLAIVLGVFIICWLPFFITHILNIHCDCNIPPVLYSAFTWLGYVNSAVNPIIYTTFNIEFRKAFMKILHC

D(1A) dopamine receptor = D(1A) dopamine receptor (Rattus norvegicus, UniProt P18901); experiment: In vitro binding affinity towards Dopamine receptor D1
Sequence of D(1A) dopamine receptor (P18901 whole entry): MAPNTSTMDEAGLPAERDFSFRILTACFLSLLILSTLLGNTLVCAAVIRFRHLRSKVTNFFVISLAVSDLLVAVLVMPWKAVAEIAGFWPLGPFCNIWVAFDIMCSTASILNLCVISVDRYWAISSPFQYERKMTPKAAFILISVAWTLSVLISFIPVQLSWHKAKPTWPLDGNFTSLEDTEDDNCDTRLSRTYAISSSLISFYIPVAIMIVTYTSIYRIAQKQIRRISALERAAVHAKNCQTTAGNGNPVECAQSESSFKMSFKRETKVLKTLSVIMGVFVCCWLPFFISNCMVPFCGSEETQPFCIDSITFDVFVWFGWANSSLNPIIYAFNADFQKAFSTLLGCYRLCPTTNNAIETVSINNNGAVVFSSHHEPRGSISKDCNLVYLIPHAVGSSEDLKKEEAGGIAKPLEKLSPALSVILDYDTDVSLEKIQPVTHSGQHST

Rattus norvegicus [6] = experiment: Effect of compound on total full contralateral turns at the dose of 10 mg/Kg administered perorally in ungerstedt rat model; format: functional

| SMILES | Turns (Rattus norvegicus [2]) | Turns (Rattus norvegicus [3]) | also measured |
| --- | --- | --- | --- |
| CCCN(CCC)C1CCC2=C(CCC/C2=N\OC(=O)c2ccc(C)cc2)C1 (stereo unspecified) |  |  | Turns (Rattus norvegicus [1]): inactive |
| CCCN(CCC)C1CCC2=C(CCC/C2=N\OC(=O)C(C)C)C1 (stereo unspecified) | 152 |  |  |
| CCCN(CCC)C1CCC2=C(CCC/C2=N\OCC)C1 (stereo unspecified) | 176 | 4217 |  |
| CCCN(CCC)C1CCC2=C(CCC/C2=N\OC(=O)c2ccccc2)C1 (stereo unspecified) |  | 2208 |  |
| CCCN(CCC)C1CCC2=C(CCC/C2=N\OC)C1 (racemic) | 1007 | 5295 | EC50 (D(2) dopamine receptor [4]): > 1000 nM; Ki (D(2) dopamine receptor [5]): 2300 nM |
| CCCCO/N=C1\CCCC2=C1CCC(N(CCC)CCC)C2 (stereo unspecified) |  | 1364 |  |
| CCCN(CCC)C1CCC2=C(CCC/C2=N\OCc2ccccc2)C1 (stereo unspecified) | 1652 | 4702 |  |
| CCCN(CCC)C1CCc2c(ccc(O)c2O)C1 (racemic) |  |  | Ki (D(1A) dopamine receptor): 170 nM; Ki (D(2) dopamine receptor [5]): 3 nM |
| CCCN(CCC)[C@H]1CCC2=C(CCC/C2=N\OC)C1 |  |  | Turns (Rattus norvegicus [6]): 2014 |
| CCCN(CCC)C1CCC2=C(CCC/C2=N\OC(C)=O)C1 (stereo unspecified) | 365 |  |  |
| CCCN(CCC)[C@H]1CCC2=C(CCC/C2=N\OC(C)=O)C1 | 2007 |  |  |
| CCCN(CCC)C1CCC2=C(CCC/C2=N\OC(=O)C(C)(C)C)C1 (stereo unspecified) | 187 |  |  |
| CCCN(CCC)C1CCC2=C(CCC/C2=N\OC(C)(C)C)C1 (stereo unspecified) |  | 2118 |  |
| CCCO/N=C1\CCCC2=C1CCC(N(CCC)CCC)C2 (stereo unspecified) | 943 | 5406 |  |
